The results in this text go back to US9334269B2, “Carboxamides as inhibitors of voltage-gated sodium channels” (AMGEN INC., priority 2010, dated 2016).

One test deals with T1, human Nav1.7 (hNav1.7) (Homo sapiens, UniProt Q15858).
T1 construct: expressed in transfected cells
T1 sequence (Q15858 whole entry): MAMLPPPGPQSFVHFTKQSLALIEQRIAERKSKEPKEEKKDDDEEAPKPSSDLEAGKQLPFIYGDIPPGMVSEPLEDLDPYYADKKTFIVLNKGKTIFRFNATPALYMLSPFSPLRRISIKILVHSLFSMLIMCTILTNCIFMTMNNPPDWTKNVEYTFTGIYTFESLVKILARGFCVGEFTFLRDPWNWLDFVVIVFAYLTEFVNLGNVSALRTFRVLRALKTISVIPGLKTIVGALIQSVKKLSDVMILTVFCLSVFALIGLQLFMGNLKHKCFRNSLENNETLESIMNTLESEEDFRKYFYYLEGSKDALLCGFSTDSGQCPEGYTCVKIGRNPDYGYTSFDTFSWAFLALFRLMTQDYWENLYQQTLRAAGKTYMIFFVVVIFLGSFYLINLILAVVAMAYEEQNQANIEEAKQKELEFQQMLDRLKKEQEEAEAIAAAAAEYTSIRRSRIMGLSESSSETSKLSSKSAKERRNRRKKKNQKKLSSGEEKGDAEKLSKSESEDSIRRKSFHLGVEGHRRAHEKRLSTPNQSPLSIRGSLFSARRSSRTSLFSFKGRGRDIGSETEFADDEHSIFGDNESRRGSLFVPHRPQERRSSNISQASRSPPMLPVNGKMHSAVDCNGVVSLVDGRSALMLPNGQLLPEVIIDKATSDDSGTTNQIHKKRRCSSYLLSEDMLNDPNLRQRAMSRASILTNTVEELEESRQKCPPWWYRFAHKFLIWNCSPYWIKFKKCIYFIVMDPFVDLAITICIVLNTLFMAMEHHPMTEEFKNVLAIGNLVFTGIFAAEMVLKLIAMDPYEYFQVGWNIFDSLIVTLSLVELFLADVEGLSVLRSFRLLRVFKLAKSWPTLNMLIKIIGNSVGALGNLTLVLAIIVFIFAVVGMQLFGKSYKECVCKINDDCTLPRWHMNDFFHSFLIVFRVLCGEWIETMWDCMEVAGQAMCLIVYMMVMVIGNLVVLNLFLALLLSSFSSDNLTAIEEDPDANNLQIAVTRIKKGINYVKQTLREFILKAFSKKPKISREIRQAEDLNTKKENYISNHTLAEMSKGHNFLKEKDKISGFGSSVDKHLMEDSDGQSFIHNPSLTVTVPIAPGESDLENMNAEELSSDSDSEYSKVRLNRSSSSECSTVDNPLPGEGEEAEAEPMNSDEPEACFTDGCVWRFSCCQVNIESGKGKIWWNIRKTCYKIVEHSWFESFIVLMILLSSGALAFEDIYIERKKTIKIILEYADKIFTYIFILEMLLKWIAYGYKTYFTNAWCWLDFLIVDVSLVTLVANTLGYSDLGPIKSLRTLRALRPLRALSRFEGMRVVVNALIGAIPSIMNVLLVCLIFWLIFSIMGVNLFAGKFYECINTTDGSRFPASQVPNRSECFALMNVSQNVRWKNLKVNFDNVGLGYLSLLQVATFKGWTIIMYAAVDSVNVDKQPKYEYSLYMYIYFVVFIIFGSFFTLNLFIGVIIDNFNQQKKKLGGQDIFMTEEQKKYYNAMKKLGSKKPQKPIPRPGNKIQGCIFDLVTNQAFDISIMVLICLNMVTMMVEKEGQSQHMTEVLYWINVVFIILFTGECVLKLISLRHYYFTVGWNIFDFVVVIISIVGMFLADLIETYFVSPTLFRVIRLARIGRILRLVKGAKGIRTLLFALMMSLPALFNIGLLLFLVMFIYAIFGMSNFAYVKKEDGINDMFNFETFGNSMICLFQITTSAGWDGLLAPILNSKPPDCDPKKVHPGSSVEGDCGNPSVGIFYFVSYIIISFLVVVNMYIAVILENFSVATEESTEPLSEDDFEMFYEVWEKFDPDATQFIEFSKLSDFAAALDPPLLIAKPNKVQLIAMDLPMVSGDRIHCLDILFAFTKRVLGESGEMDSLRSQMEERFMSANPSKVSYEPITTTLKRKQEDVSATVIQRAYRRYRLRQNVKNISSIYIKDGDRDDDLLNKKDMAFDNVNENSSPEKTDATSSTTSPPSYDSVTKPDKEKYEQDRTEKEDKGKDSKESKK
Nature of the test: hNav1.7 whole-cell patch-clamp electrophysiology (automated PatchXpress 7000A or manual) in stably expressing 293 cells. It is filed as cell-based. To be noted: average IC50. The procedure:
Compounds were tested on human Nav1.7 (hNav1.7) expressed stably in 293 cells, which have no endogenous sodium channels. Two forms of whole-cell patch-clamp assays were used. In both, peak current through Nav1.7 was evoked by a depolarizing voltage pulse, and currents were monitored as a function of time in response to exposure to several different concentrations of drug. Automated electrophysiology uses the PatchXpress 7000A system. Up to sixteen cells at a time were voltage-clamped in parallel, and the steady-state voltage dependence of inactivation was determined experimentally for each cell. For each cell, fractional inactivation was set at 20%, and peak current through Nav1.7 as a function of time was measured in response to increasing concentrations of test compound. Manual electrophysiology refers to conventional whole-cell patch-clamping (Hamill et al., 1981). After formation of the whole-cell clamp, cells were lifted off the bottom of the dish with the patch pipette and positioned directly in front of an array of glass microperfusion tubes each with internal diameter about 250 microns, with individual compound concentrations flowing from each tube. Current as a function of time in response to increasing drug concentrations was measured with Nav1.7 fully in the resting state (holding voltage set to −140 mV) and on the same cells with the holding voltage set to produce about 20% inactivation. Compounds were not applied for a prespecified time, but for as long as required to achieve a stable level of block. For both forms of electrophysiology, offline analysis was used to correct for rundown of channel current and to determine percent inhibition as a function of drug concentration. IC50 were determined by fitting to the Hill equation.
`CNC(=O)c1cccc(Nc2ncnc(NCCc3nnc(-c4ccc(C)s4)o3)n2)c1` [Example 287]: the IC50 was > 30 µM.
Still for that read-out and setting: under `CNC(=O)c1cccc(Nc2ncnc(N3CCN(c4ccc(F)c(Cl)c4)CC3)n2)c1` [Example 271] stands 21.4 µM; under `CNC(=O)c1cc(F)cc(Nc2ncnc(NCCCOc3ccc(OC(F)(F)F)cc3)n2)c1` [Example 282], > 30 µM; under `Cc1c(Nc2ncnc(N3CCC(OCc4ccc(OC(F)(F)F)cc4)CC3)n2)cccc1C(N)=O` [Example 267], 20.9 µM.
With `CNC(=O)c1ccc(OC)c(Nc2ncnc(N3CC(Oc4ccc(Cl)cc4)C3)n2)c1` [Example 283], the IC50 was > 30 µM.
Regarding `CNC(=O)c1cccc(Nc2ncnc(N3CC(COc4ccccc4C(F)(F)F)C3)n2)c1` [Example 276], the IC50 came out at 23.6 µM.

The test is the same for the next values; noted with them: average IC50, human Nav1.7.
In turn, `O=C(NCC(F)(F)F)c1cccc(Nc2ncnc(N3CC(Oc4ccc(F)cc4)C3)n2)c1` [Example 174] returned an IC50 of 4.62 µM.
The same measure, in the same setting: under `CNC(=O)c1cccc(Nc2ncnc(N3CC(COc4cccc(OC)c4)C3)n2)c1` [Example 244] stands 12 µM; under `CNC(=O)c1cccc(Nc2ncnc(N3CCc4c(C#N)cccc4C3)n2)c1` [Example 72], 0.9 µM.
The same measure, in the same setting: then `CNC(=O)c1cccc(Nc2ncnc(N[C@H](C)CCc3ccccc3)n2)c1` [Example 120], with 2.09 µM.
`CNC(=O)c1cccc(Nc2ncnc(N3CCC(Oc4ccc(Cl)cc4)CC3)n2)c1` [Example 145] came in with an IC50 of 2.9 µM.
Same read-out and setting: under `CNC(=O)c1cccc(Nc2ncnc(N3CC(Oc4cccc(C(C)(C)C)c4)C3)n2)c1` [Example 134] stands 2.58 µM.
The molecule `CNC(=O)c1cc(F)cc(Nc2ncnc(N3CCC(Oc4ccc(OC(F)(F)F)cc4)CC3)n2)c1` [Example 146] came in with an IC50 of 2.91 µM.
The same measure, in the same setting: then `CNC(=O)c1cccc(Nc2ncnc(N3CCc4cc(OC)ccc4C3)n2)c1` [Example 222], with 8.96 µM.
The same measure, in the same setting: then `CNC(=O)c1cccc(Nc2ncnc(N3CCC(Oc4ccccc4F)CC3)n2)c1` [Example 238], with 10.8 µM; and `CNC(=O)c1cccc(Nc2ncnc(N3CCc4c(cccc4OCCOC)C3)n2)c1` [Example 252], with 15 µM.
In turn, `CNC(=O)c1cccc(Nc2ncnc(N3CC(COc4ccc(Cl)cc4F)C3)n2)c1` [Example 105] yielded an IC50 of 1.58 µM.
On the same count and under the same terms, under `CNC(=O)c1cc(Nc2ncnc(N3CC(Oc4ccc(F)c(Cl)c4)C3)n2)ccc1Cl` [Example 97] stands 1.4 µM.
On the same count and under the same terms, under `CNC(=O)c1cccc(Nc2ncnc(N3CCC(c4ccccc4)CC3)n2)c1` [Example 65] stands 0.84 µM; under `CNC(=O)c1cccc(Nc2ncnc(N3CC(COc4ccc(Cl)cc4C)C3)n2)c1` [Example 73], 0.9 µM; under `CNC(=O)c1cccc(Nc2ncnc(NCCCOc3ccc(OC(F)(F)F)cc3)n2)c1C` [Example 156], 3.34 µM.
Still for that read-out and setting: then `CNC(=O)c1cc(Nc2ncnc(NCCCOc3ccc(OC(F)(F)F)cc3)n2)ccc1F` [Example 64], with 0.83 µM.
The molecule `CNC(=O)c1cccc(Nc2ncnc(N3CCN(Cc4ccccc4OC(F)(F)F)CC3)n2)c1` [Example 191] returned an IC50 of 5.6 µM.
For `CNC(=O)c1cccc(Nc2ncnc(N3CCN(S(=O)(=O)c4ccc(OC(F)(F)F)cc4)CC3)n2)c1` [Example 126], the IC50 came to 2.29 µM.
On the same count and under the same terms, under `CNC(=O)c1cccc(Nc2ncnc(N3CCc4cc(OCCOC)ccc4C3)n2)c1` [Example 233] stands 9.87 µM; under `CNC(=O)c1cc(Nc2ncnc(N3CC(Oc4ccc(Cl)cc4)C3)n2)ccc1Cl` [Example 162], 3.69 µM.
On the same count and under the same terms, then `CNC(=O)c1cccc(Nc2ncnc(NCCCOc3cccc(F)c3)n2)c1` [Example 260], with 17.6 µM; and `CNC(=O)c1cccc(Nc2ncnc(N3CCC(c4csc(-c5ccccc5)n4)CC3)n2)c1` [Example 26], with 0.39 µM.
Still for that read-out and setting: under `CNC(=O)c1cccc(Nc2ncnc(N3CC(Oc4ccc(OC)cc4)C3)n2)c1` [Example 87] stands 1.23 µM; under `CNC(=O)c1cccc(Nc2ncnc(N3CCC(c4ccc(OC(F)(F)F)cc4)CC3)n2)c1` [Example 135], 2.59 µM; under `CNC(=O)c1cccc(Nc2ncnc(N3CCC(C(=O)c4ccc(Cl)cc4)CC3)n2)c1` [Example 36], 0.49 µM.
For `CNC(=O)c1cccc(Nc2ncnc(N3CCC(C#Cc4ccccc4)CC3)n2)c1` [Example 124], the midpoint of inhibition, the IC50, lay at 2.16 µM.
On the same count and under the same terms, then `CNC(=O)c1cc(Nc2ncnc(NCCCOc3cccc(C(F)(F)F)c3)n2)ccc1Cl` [Example 164], with 3.75 µM.
In the case of `CNC(=O)c1cccc(Nc2ncnc(N3CCN(c4ccccc4)CC3)n2)c1` [Example 115], inhibition was half-maximal at 1.87 µM (IC50).
`CNC(=O)c1cccc(Nc2ncnc(N3CC(Oc4cc(Cl)ccc4Cl)C3)n2)c1` [Example 18] had an IC50 of 0.31 µM.
As to `CNC(=O)c1cc(F)cc(Nc2ncnc(N3CCC(c4nc(-c5ccccc5)cs4)CC3)n2)c1` [Example 103], half-maximal inhibition (IC50) required 1.56 µM.
For the molecule `CNC(=O)c1cccc(Nc2ncnc(N3CC(C)(Oc4ccc(C)cc4)C3)n2)c1` [Example 182], the IC50 is 5.1 µM.
`CNC(=O)c1cccc(Nc2ncnc(N3CCc4c(cccc4OC)C3)n2)c1` [Example 138] came in with an IC50 of 2.74 µM.
The same measure, in the same setting: then `CNC(=O)c1cccc(Nc2ncnc(N3CC(COc4cccc(Cl)c4)C3)n2)c1` [Example 201], with 7.03 µM; and `CNC(=O)c1cccc(Nc2nccc(N3CC(Oc4ccc(OC)cc4)C3)n2)c1` [Example 31], with 0.43 µM; and `CNC(=O)c1cccc(Nc2ncnc(N3CC(Oc4cc(C)ccc4Cl)C3)n2)c1` [Example 66], with 0.84 µM.
Still for that read-out and setting: then `CNC(=O)c1cc(Nc2ncnc(N3CC(Oc4ccc(F)cc4)C3)n2)ccc1F` [Example 57], with 0.76 µM.

Still in this test, the particulars now being: human Nav1.7 stably expressed in 293 cells; whole-cell patch clamp; average IC50 from Hill fit.
Regarding `CNC(=O)c1cc(Nc2cccc(N3CC(Oc4ccc(Cl)cc4F)C3)n2)ccc1F` [Example X, 5-((6-(3-(4-chloro-2-fluorophenoxy)-1-azetidinyl)-2-pyridinyl)amino)-2-fluoro-N-methylbenzamide], the IC50 was 4.46 µM.
On the same count and under the same terms, then `CNC(=O)c1cccc(Nc2nccc(N3CC(Oc4ccc(Cl)c(F)c4)C3)n2)c1` [Example K, 3-((4-(3-(4-chloro-3-fluorophenoxy)-1-azetidinyl)-2-pyrimidinyl)amino)-N-methylbenzamide], with 0.74 µM; and `CNC(=O)c1cccc(Nc2nccc(N3CC(Oc4ccc(C(F)(F)F)cc4)C3)n2)c1` [Example C, N-methyl-3-((4-(3-(4-(trifluoromethyl)phenoxy)-1-azetidinyl)-2-pyrimidinyl)amino)benzamide], with 1.55 µM.
On the same count and under the same terms, then `CNC(=O)c1cccc(Nc2ncnc(N3CC(Oc4ccc(Cl)cc4F)C3)c2F)c1` [Example AB, 3-((6-(3-(4-chloro-2-fluorophenoxy)-1-azetidinyl)-5-fluoro-4-pyrimidinyl)-amino)-N-methylbenzamide], with > 30 µM.
The same measure, in the same setting: under `CNC(=O)c1cccc(Nc2nccc(N3CC(Oc4ccc(Cl)cc4F)C3)n2)c1` [Example M, 3-((4-(3-(4-chloro-2-fluorophenoxy)-1-azetidinyl)-2-pyrimidinyl)amino)-N-methylbenzamide] stands 2.3 µM.
Molecule `CNC(=O)c1cccc(Nc2ccnc(N3CC(Oc4ccc(Cl)cc4F)C3)c2)c1` [Example AA, 3-((2-(3-(4-chloro-2-fluorophenoxy)-1-azetidinyl)-4-pyridinyl)amino)-N-methylbenzamide] had an IC50 of 7.15 µM.
